The test system of one data set is leukemic cells. To be noted: Japanese Patent Publication (unexamined) No. 141815/1976; cited from earlier work.
A further data set relates to lymphoid leukemia L-1210. Conditions: U.S. Pat. No. 4,086,415; cited from earlier work.
In data set [1] the test system is Ehrlich ascites carcinoma. Kind of data set: Preventive effect against the growth of Ehrlich ascites carcinoma (Method A). In kind it is in vivo, ICR mice. To be noted: for Toxicity / the number of mice died / the number of mice used / minimal effective dose / Inhibition ratio: once a day for 5 days; for Therapeutic index: MTD / MED; for minimal effective dose: Mus musculus, Ehrlich, ip, 120 h, minimum dose showing 100% inhibition, i.p., read-out: MED (Minimum Effective Dose). As for the experimental part: (§1) (A) Preventive Effect Against the Growth of Ehrlich Ascites Tumor
(§2) 10^6 tumor cells of Ehrlich ascites carcinoma were inoculated intraperitoneally into a group of five femal mice (ICR mice, body weight: 19-23 g). A test compound was dissolved in a physiological saline solution (In the case where CCNU was employed as the test compound, said compound was suspended in a physiological saline solution containing 0.1% NIKKOL HCO-60 (trademark; a surface active agent manufactured by Nikko Chemicals Co. Ltd.)) and administered intraperitoneally to the mice. The administration of the test compound was begun 24 hours after the inoculation of the tumor cells and performed once a day for 5 days. The volume of ascites in the treated mice were measured after 7 days of the experiment.
(§3) ^(a) T = the average volume of ascites in the treated mice
(§4) C = the average volume of ascites in the untreated mice (control group of
(§5) 100% inhibition for the growth of Ehrlich ascites tumor in mice without
(§6) 100% inhibition for the growth of said ascites tumor)
(§7) ^(e) Therapeutic index = MTD / MED
(§8) *the number of mice died / the number of mice used

Assay in data set [2]: as above
To be noted: mouse, in vivo, ip; maximum dose showing 100% inhibition without causing death; i.p., once a day for 5 days; read-out: MTD (Maximum Tolerated Dose). Type of data set: in vivo, ICR mice. As for the experimental part: as §1, §2, §3, §4, §5, §6, §7, §8

Another data set relates to Leukemia L-1210. Kind of data set: Effect on life span of mice implanted with Leukemia L-1210 (Method B). Type of data set: in vivo, BDF1 mice. To be noted: once a day for 5 days; for 60-day survivors: survived for 60 days / used. As for the experimental part:
(B) Effect on the Life Span of Mice Implanted with Leukemic Cells of L-1210
10^5 leukemic cells of L-1210 were inoculated intraperitoneally into a group of four male mice (BDF1 mice, body weight: 19-23 g). A test compound was dissolved in a physiological saline solution and administered intraperitoneally to the mice. The administration of the test compound was begun 24 hours after the inoculation of the leukemic cells and performed once a day for 5 days. The survival days of the treated mice were observed.
^(a) T = the mean survival days of the treated mice
C = the mean survival days of the untreated mice (control group of mice)
^(c) 60day survivors = the number of mice survived for 60 days / the […]

Take `O=NN(CCCl)C(=O)N[C@@H]1O[C@H](CO)[C@@H](O[C@@H]2O[C@H](CO)[C@H](O)[C@H](O)[C@H]2O)[C@H](O)[C@H]1O` [1-(2-chloroethyl)-1-nitroso-3-β-(D-lactosyl)urea]: in the data set on leukemic cells, the “anti-tumor activity against leukemic cells” value is given as “show anti-tumor activity against leukemic cells”.

With `O=NN(CCCl)C(=O)N[C@@H]1O[C@H](CO)[C@@H](O[C@H]2O[C@H](CO)[C@@H](O)[C@H](O)[C@H]2O)[C@H](O)[C@H]1O` [1-(2-chloroethyl)-1-nitroso-3-β-(D-maltosyl)urea], the “anti-tumor activity against leukemic cells” value in the data set on leukemic cells is “show anti-tumor activity against leukemic cells”.

In the case of `O=NN(CCCl)C(=O)N[C@@H]1O[C@H](CO)[C@@H](O)[C@H](O)[C@@H]1O` [1-(2-chloroethyl)-1-nitroso-3-β-(D-mannopyranosyl)urea], the “life span of mice implanted with L-1210” value with lymphoid leukemia L-1210 is reported as “increase the life span of mice”.

For `O=NN(CCCl)C(=O)NC1CCCCC1` [CCNU, 1-(2-chloroethyl)-1-nitroso-3-cyclohexylurea, reference compound], in data set [1] (100 mg/kg/day i.p.), the “Toxicity” value is given as “Toxic” and the “the number of mice died / the number of mice used” value is 5/5. Also, in data set [1], the Therapeutic index stood at 4 and the minimal effective dose is 12.5 mg/kg/day.

Broadly, the MTD is the highest dose tested that stayed within the study's limit of toxicity. For `CCCCN(C(=O)N(CCCl)N=O)[C@H]1[C@@H](OC)O[C@H](CO)[C@@H](O)[C@@H]1O` [Compound 1, 1-(2-chloroethyl)-1-nitroso-3-n-butyl-3-(methyl α-D-glucopyranosid-2-yl)urea], the Inhibition ratio in data set [1] (0.78 mg/kg/day i.p.) is 34.1%; in data set [1] (1.56 mg/kg/day i.p.), 100%; in data set [1] (6.25 mg/kg/day i.p.), 100%; in data set [1] (25 mg/kg/day i.p.) it was 100%; in data set [1] (100 mg/kg/day i.p.) it was 100%. Further, the “Toxicity” value in data set [1] (200 mg/kg/day i.p.) is listed as “Toxic”. In addition, the Therapeutic index in data set [1] is 64. Besides, the minimal effective dose in data set [1] came out at 1.56 mg/kg/day. Moreover, the MTD in data set [2] was determined as 100 mg/kg/day.

For orientation: ILS means the gain in survival time of treated over control animals, in per cent. `CCCN(C(=O)N(CCCl)N=O)[C@H]1[C@@H](OC)O[C@H](CO)[C@@H](O)[C@@H]1O` [Compound 2, 1-(2-chloroethyl)-1-nitroso-3-n-propyl-3-(methyl α-D-glucopyranosid-2-yl)urea]: the ILS in the data set on Leukemia L-1210 (6.25 mg/kg/day i.p.) is recorded as 78.8%; in the data set on Leukemia L-1210 (12.5 mg/kg/day i.p.), over 366.3%; in the data set with Leukemia L-1210 (25 mg/kg/day i.p.), over 650.0%; with Leukemia L-1210 (50 mg/kg/day i.p.), over 650.0%. The 60-day survivors with Leukemia L-1210 (6.25 mg/kg/day i.p.) is 0/4; in the data set with Leukemia L-1210 (12.5 mg/kg/day i.p.), 2/4; in the data set on Leukemia L-1210 (25 mg/kg/day i.p.), 4/4; in the data set on Leukemia L-1210 (50 mg/kg/day i.p.), 4/4. The Inhibition ratio in data set [1] (0.39 mg/kg/day i.p.) came out at 15.2%; in data set [1] (0.78 mg/kg/day i.p.) it was 100%; in data set [1] (3.12 mg/kg/day i.p.), 100%; in data set [1] (12.5 mg/kg/day i.p.), 100%; in data set [1] (50 mg/kg/day i.p.) it was 100%. The “Toxicity” value in data set [1] (100 mg/kg/day i.p.) was “Toxic”. Besides, the “the number of mice died / the number of mice used” value in data set [1] (100 mg/kg/day i.p.) is listed as 2/5. This compound displayed a Therapeutic index in data set [1] of 64. The minimal effective dose in data set [1] amounted to 0.78 mg/kg/day. The MTD in data set [2] amounted to 50 mg/kg/day.

`CO[C@H]1O[C@H](CO)[C@@H](O)[C@H](O)[C@H]1N(CC(C)C)C(=O)N(CCCl)N=O` [Compound 3, 1-(2-chloroethyl)-1-nitroso-3-isobutyl-3-(methyl α-D-glucopyranosid-2-yl)urea]: the ILS with Leukemia L-1210 (12.5 mg/kg/day i.p.) is listed as 114.9%; in the data set on Leukemia L-1210 (25 mg/kg/day i.p.), over 689.5%; in the data set on Leukemia L-1210 (50 mg/kg/day i.p.) it was over 689.5%. Also, the 60-day survivors with Leukemia L-1210 (12.5 mg/kg/day i.p.) is listed as 0/4; in the data set with Leukemia L-1210 (25 mg/kg/day i.p.), 4/4; in the data set on Leukemia L-1210 (50 mg/kg/day i.p.), 4/4. The Inhibition ratio is given as 45.7% in data set [1] (0.39 mg/kg/day i.p.); 100% in data set [1] (0.78 mg/kg/day i.p.); 100% in data set [1] (3.12 mg/kg/day i.p.); 100% in data set [1] (12.5 mg/kg/day i.p.); 100% in data set [1] (50 mg/kg/day i.p.). Also, the “Toxicity” value in data set [1] (100 mg/kg/day i.p.) is on record as “Toxic”. The “the number of mice died / the number of mice used” value in data set [1] (100 mg/kg/day i.p.) is given as 4/5. This compound also had a Therapeutic index in data set [1] of 64. For the same compound, the minimal effective dose in data set [1] stood at 0.78 mg/kg/day. Moreover, in data set [2], the maximum tolerated dose (MTD) was determined as 50 mg/kg/day.

Regarding `COCCN(C(=O)N(CCCl)N=O)[C@H]1[C@@H](OC)O[C@H](CO)[C@@H](O)[C@@H]1O` [Compound 4, 1-(2-chloroethyl)-1-nitroso-3-(2-methoxyethyl)-3-(methyl α-D-glucopyranosid-2-yl)urea], the ILS with Leukemia L-1210 (6.25 mg/kg/day i.p.) was 93.8%; in the data set on Leukemia L-1210 (12.5 mg/kg/day i.p.) it was over 243.8%; in the data set on Leukemia L-1210 (25 mg/kg/day i.p.), over 650.0%; with Leukemia L-1210 (50 mg/kg/day i.p.), over 650.0%. The 60-day survivors in the data set on Leukemia L-1210 (6.25 mg/kg/day i.p.) is recorded as 0/4; in the data set on Leukemia L-1210 (12.5 mg/kg/day i.p.), 1/4; in the data set on Leukemia L-1210 (25 mg/kg/day i.p.), 4/4; in the data set with Leukemia L-1210 (50 mg/kg/day i.p.), 4/4. Besides, the Inhibition ratio is given as 69.6% in data set [1] (0.19 mg/kg/day i.p.); 100% in data set [1] (0.39 mg/kg/day i.p.); 100% in data set [1] (0.78 mg/kg/day i.p.); 100% in data set [1] (3.12 mg/kg/day i.p.); 100% in data set [1] (12.5 mg/kg/day i.p.); 100% in data set [1] (50 mg/kg/day i.p.). The “Toxicity” value in data set [1] (100 mg/kg/day i.p.) was “Toxic”. The “the number of mice died / the number of mice used” value in data set [1] (100 mg/kg/day i.p.) was 3/5. In data set [1], this compound came in with a Therapeutic index of 128. The minimal effective dose in data set [1] worked out at 0.39 mg/kg/day. Further, in data set [2], the MTD stood at 50 mg/kg/day.

As to `CO[C@H]1O[C@H](CO)[C@@H](O)[C@H](O)[C@H]1N(C)C(=O)N(CCCl)N=O` [Compound 5, 1-(2-chloroethyl)-1-nitroso-3-methyl-3-(methyl α-D-glucopyranosid-2-yl)urea], the Inhibition ratio in data set [1] (0.39 mg/kg/day i.p.) was found to be 9.8%; in data set [1] (0.78 mg/kg/day i.p.), 100%; in data set [1] (1.56 mg/kg/day i.p.) it was 100%; in data set [1] (6.25 mg/kg/day i.p.) it was 100%; in data set [1] (25 mg/kg/day i.p.), 100%; in data set [1] (100 mg/kg/day i.p.), 100%. Further, the “Toxicity” value in data set [1] (200 mg/kg/day i.p.) is given as “Toxic”. In addition, the “the number of mice died / the number of mice used” value in data set [1] (200 mg/kg/day i.p.) was 5/5. Moreover, in data set [1], the Therapeutic index is on record as 128. In addition, the minimal effective dose in data set [1] was 0.78 mg/kg/day. Further, the MTD in data set [2] was determined as 100 mg/kg/day.

In the case of `O=NN(CCCl)C(=O)N[C@@H]1O[C@H](CO)[C@@H](O)[C@H](O)[C@H]1O` [GANU, 1-(2-chloroethyl)-1-nitroso-3-(β-D-glucopyranosyl)urea, reference compound], in the data set with lymphoid leukemia L-1210, the “life span of mice implanted with L-1210” value is given as “increase the life span of mice”. For the same compound, the Inhibition ratio in data set [1] (12.5 mg/kg/day i.p.) was 100%. Moreover, in data set [1] (25 mg/kg/day i.p.), the “Toxicity” value is “Toxic” and the “the number of mice died / the number of mice used” value is on record as 5/5. Further, in data set [1], the Therapeutic index is on record as 32 and the minimal effective dose was 0.39 mg/kg/day. Besides, the MTD in data set [2] worked out at 12.5 mg/kg/day.
